Results from BindingDB's records for doi:10.1111/cbdd.12744 (Southern Research Institute, 2016).

Biological target: T1, Kinesin-like protein KIF11 [15-368] (Homo sapiens, UniProt P52732)
T1 construct: 15-368
T1 sequence (P52732 whole entry): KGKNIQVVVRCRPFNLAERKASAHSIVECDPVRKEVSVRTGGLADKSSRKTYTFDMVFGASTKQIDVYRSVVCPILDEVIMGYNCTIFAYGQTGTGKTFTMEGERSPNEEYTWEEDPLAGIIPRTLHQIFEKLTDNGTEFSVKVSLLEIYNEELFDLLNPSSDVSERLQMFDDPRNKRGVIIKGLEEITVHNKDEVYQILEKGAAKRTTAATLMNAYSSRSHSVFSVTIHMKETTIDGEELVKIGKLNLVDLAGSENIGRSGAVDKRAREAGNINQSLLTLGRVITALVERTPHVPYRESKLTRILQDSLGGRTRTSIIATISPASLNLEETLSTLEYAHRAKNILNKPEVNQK
Experiment: ADP Hunter Plus Assay
Details: pH 7; 25 °C
Procedure: Compounds were first tested in triplicates at 100 uM; hit compounds were further tested with a 10-point twofold serial dilution to confirm their activity and determine their IC50 values. S-Trityl-L-cysteine (STLC), a selective Eg5 inhibitor(J. Biol. Chem. 2006, 281:17559-17569; Mol. Cancer Ther. 2004, 3:1079-1090), was used as the control compound. Specifically, 20 uL of 15 mM PIPES (pH 7.0) containing 1 mM MgCl2, 50 nM MT, 20 uM paclitaxel, 200 uM ATP, 5% DMSO, 60 nM Eg5 proteins, and 1:2 serial dilutions of each individual compound starting from 1000 uM were added to each well of a 96-well plate. The plate was incubated at room temperature for 0.5 h, and then, the ADP Hunter Plus reagents were added. The plate was further incubated for 0.5 h and then read for fluorescence (ex.530/em.590) on Synergy 4 (BioTek, Winooski, VT, USA).

IC50 [µM]	Structure (SMILES)
78.9	FC(F)(F)c1ccc(Nc2ncnc3[nH]ncc23)cc1 [SRI35565]
118	Cc1ccc(C2C(C#N)=C(N)Nc3ncnn32)cc1 (stereo not drawn) [SRI35564]
65	O=C1CC(c2ccccc2)c2c(n3ncnc3[nH]c2=O)N1 (stereo not drawn) [SRI35566]
